Experimental data as given in patent US20240352414A1, “THREE-DIMENSIONAL DIRECT NEURONAL REPROGRAMMING TO MODEL ALZHEIMER'S DISEASE IN HUMAN NEURONS” (Washington University, priority 2023, published 2024).

What was measured:
Type in all cases: cell-based, human
LOAD spheroids = assay: Aβ deposition by whole mount immunostaining (6E10) in LOAD spheroids; details: treatment started at PID22 (after onset of Aβ deposition), examined at PID28
Description: (§1) β-secretase inhibitor IV (cat #565788), DAPT (cat #D5942), and lamivudine (3TC) (cat #PHR1365) were purchased from Millipore Sigma. To make the stock solution, 5 mM β-secretase inhibitor IV and 40 mM DAPT were dissolved in DMSO and 100 mM 3TC was dissolved in sterile water. For thin gel culture, 2.5 μM β-secretase inhibitor IV, 20 μM DAPT, or 100 μM 3TC was added to the fresh media and used for half media changes starting at PID16 or PID22. For spheroids culture, 5 μM β-secretase inhibitor IV, 40 μM DAPT, or 100 μM 3TC was added to the fresh media and used for half media changes starting at PID16 or PID22.
(§2) Whole mount immunofluorescence staining of spheroid: For whole-mount immunostaining of neuronal spheroid, 3D cell culture clearing kit (abcam: ab243299) was used with modifications. Briefly, fixed spheroids on transwell inserts were permeabilized by sequential dehydration and rehydration using different concentrations of ethanol. […]
(§3) For quantification of the total volume of Aβ deposits, volume and area of the spheroid, co-localization analysis in tau related pathologies, and number of TUNEL positive cells or total cells, the “surface” module in Imaris was used for 3D reconstruction and quantification. […]

ADAD spheroids [1] = assay: Aβ deposition by whole mount immunostaining (6E10) in ADAD spheroids; details: ADAD spheroids treated from PID16 to 28; 5 μM β-secretase inhibitor IV or 40 μM DAPT; immunostained at PID28
Description: as §1, §2, §3

ADAD 3D-CNs = assay: p-tau (AT8) and K63-ubiquitin/p-tau (PHF1) immunostaining in ADAD 3D-CNs; details: ADAD 3D-CNs treated with β-secretase inhibitor IV or DAPT
Description: as §1
Immunofluorescence staining of thin gel: The fixed thin gel cultures were permeabilized in PBST (0.2% (vol/vol) TritonX-100 in PBS) at room temperature for 1h and blocked with blocking buffer (5% (wt/vol) BSA, 2% (wt/vol) normal goat serum, and 0.2% (vol/vol) TritonX-100) overnight at 4° C. The blocking buffer was removed from thin gel culture plates and primary antibodies diluted in blocking buffer were added to the plate followed by incubation overnight at 4° C. with gentle rocking. After washing 5 times with PBST, the cells were then incubated with secondary antibodies diluted in blocking buffer at room temperature for 3-5 hours or 4° C. overnight. Cells were washed 5 times with PBST, incubated with DAPI (Sigma) for 20 min at room temperature if needed and sealed with a drop of anti-fade prolong gold reagent (Life technology). Plates were sealed with parafilm and stored at 4° C. before imaging. The immunofluorescence images were taken by Leica SP5X white light laser confocal system.
(§4) For quantification of the total volume of Aβ deposits, volume and area of the spheroid, co-localization analysis in tau related pathologies, and number of TUNEL positive cells or total cells, the “surface” module in Imaris was used for 3D reconstruction and quantification. For measuring the intensity of neurite outgrowth in spheroid, Image J was used by measuring the mean intensity at each region (distal, middle, and proximal).

ADAD spheroids [2] = assay: Cell death (TUNEL staining) in ADAD spheroids; details: ADAD spheroids at PID28, treatment starting at PID16
Description: as §1, §4
TUNEL assay: DeadEND Fluorometric TUNEL system kit was purchased from Promega (G3250) and TUNEL assay was performed according to the manufacturer's description. Briefly, the cryosections of neuronal spheroids were permeabilized by 0.2% TritonX-100 in PBS for 5 mins followed by two 5 mins washes in PBS. […]

Compound	reduction of Aβ deposition (LOAD spheroids) [%]	Aβ deposition (ADAD spheroids [1])	K63-ubiquitin+p-tau (PHF1) level (ADAD 3D-CNs)	p-tau (AT8) level (ADAD 3D-CNs)	cell death / neuronal death (ADAD spheroids [2])	effect on Aβ deposition (LOAD spheroids)
C[C@H](NC(=O)Cc1cc(F)cc(F)c1)C(=O)N[C@H](C(=O)OC(C)(C)C)c1ccccc1 [DAPT]	~30	reduction	significant reduction	significant reduction	reduced	
β-secretase inhibitor IV		reduction	significant reduction	significant reduction	reduced	non-significant effect
